From patent publication US20120276124A1, “MAYTANSINOIDS AND THE USE OF SAID MAYTANSINOIDS TO PREPARE CONJUGATES WITH AN ANTIBODY” (priority 2009, published 2012)

Columns and labels:
MDA-MB231 = assay: Inhibition of growth of MDA-MB-231 tumor cells by free drugs (14C thymidine uptake); type: cell-based; conditions: Homo sapiens, MDA-MB231, 96 hrs, read-out: cellular inhibition proliferation (IC50 in nM) MDA-MB231
Method: (§1) Inhibition of Growth of MDA-MB-231 and HCT116 Tumor Cells
(§2) Cells in exponential phase of growth were trypsinized and resuspended in their respective culture medium (DMEM/F12 Gibco #21331; 10% SVF Gibco #10500-056; […] Glutamine Gibco #25030 for MDA-MB231 & MDA-A1 cells; DMEM (Gibco #11960) 10%, SVF Gibco #10500-056; […] Glutamine Gibco #25030 for HCT116 cells). Cell suspension was distributed in 96-well Cytostar culture plates (GE Healthcare Europe, #RPNQ0163) in complete serum-containing media at a density of 5000 cells/well (MDA-MB231 HCT116). After coating for 4 hrs, serial dilutions were added to triplicate wells. Cells were cultured at 37° C./5% CO2 in the presence of the drug for 3 days. On the 4th day, 10 μl of a solution of 14C thymidine (0.1 μCi/well (Perkin Elmer #NEC56825000) was added to each well. The uptake of 14C thymidine was measured 96 hrs after the experiment has been started with a microbeta radioactive counter (Perkin Elmer). Cell-free reagent blanks were subtracted from the test well readings and the data were plotted as surviving fractions obtained by dividing readings of the conjugate-treated cells by the average of readings from control wells of vehicle-treated cells.

HCT116 = assay: Inhibition of growth of HCT116 tumor cells by free drugs (14C thymidine uptake); type: cell-based; conditions: Homo sapiens, HCT-116; HCT116, 96 hrs; read-out: cellular inhibition proliferation (IC50 in nM) HCT116
Method: as §1, §2

| Compound | IC50 (MDA-MB231) [nM] | IC50 (HCT116) [nM] |
| --- | --- | --- |
| COC(=O)CCOCCOCCOCCOCCNC(=O)CSC(C)(C)CCC(=O)N(C)[C@@H](C)C(=O)O[C@H]1CC(=O)N(C)c2cc(cc(OC)c2Cl)C/C(C)=C/C=C/[C@@H](OC)[C@@]2(O)C[C@H](OC(=O)N2)[C@@H](C)[C@@H]2O[C@@]12C [Example 10, L-DM4-AcNH-PEG4-COOMe] | 15.3 | 13 |
| COC(=O)CCOCCOCCOCCOCCN(C)C(=O)CSC(C)(C)CCC(=O)N(C)[C@@H](C)C(=O)O[C@H]1CC(=O)N(C)c2cc(cc(OC)c2Cl)C/C(C)=C/C=C/[C@@H](OC)[C@@]2(O)C[C@H](OC(=O)N2)[C@@H](C)[C@@H]2O[C@@]12C [Example 11, L-DM4-AcNMe-PEG4-COOMe] | 28.3 | 18.5 |
| COC(=O)CCOCCOCCOCCOC/C=C/CSC(C)(C)CCC(=O)N(C)[C@@H](C)C(=O)O[C@H]1CC(=O)N(C)c2cc(cc(OC)c2Cl)C/C(C)=C/C=C/[C@@H](OC)[C@@]2(O)C[C@H](OC(=O)N2)[C@@H](C)[C@@H]2O[C@@]12C [Example 12, L-DM4-Allyl-PEG4-COOMe] | 1.5 | 0.8 |
| COC(=O)CCOCCOCCOCCOCCNC(=O)CCN1C(=O)CC(SC(C)(C)CCC(=O)N(C)[C@@H](C)C(=O)O[C@H]2CC(=O)N(C)c3cc(cc(OC)c3Cl)C/C(C)=C/C=C/[C@@H](OC)[C@@]3(O)C[C@H](OC(=O)N3)[C@@H](C)[C@@H]3O[C@@]23C)C1=O (stereo partly drawn) [Example 14, L-DM4-Mal-PEG4-COOMe] | 31.7 | 33.6 |
